Reference: US20260048051A1, “TREATMENT OF INFLAMMATORY BOWEL DISEASE” (Atomwise Inc., priority 2024, published 2026)

Assays:
GM-CSF induced pSTAT5 = GM-CSF induced pSTAT5 assay in CellSensor irf1-bla TF-1 cells; assay type: cell-based; conditions: Homo sapiens, GM-CSF 1 ng/mL, read-out: Cellular selectivity (GM-CSF induced pSTAT5)
Experimental: The CellSensor irfl-bla TF-1 cell line (LifeTechnologies, K1657) was cultured in RPMI 1640 Medium (Invitrogen 72400-047), 10% Fetal Bovine Serum (Invitrogen, 26400044), 1 mM Sodium pyruvate (Life Technologies, 11360039), 1% MEM NEAA (Life Technologies, 11140-035), 2 ng/ml of human recombinant GM-CSF (Fisher, PHC2015), 1% Penicillin/Streptomycin (Life Technologies, 15140-122) and 5 µg/ml of Blasticidin (ThermoFisher, A1113903).
The cell line was seeded in a T75 flask at 13×10^6 cells/50 mL in starvation medium (Opti-MEM™ I Reduced Serum Medium, no phenol red (Life Technologies, 11058-021), 1 mM Na pyruvate (Life Technologies, 11360039), 1% MEM NEAA (Life Technologies, 11140-035), and 1% Penicillin/Streptomycin (Life Technologies, 15140-122)) for 16 hours at 37° C. under 5% CO2 the day before the assay.
For the assay, CellSensor irfl-bla TF-1 cells were seeded at 30 000 cells/32 μL (starvation medium)/well in a 384-well plate.
Compounds were added on the cells in 4 μL (starvation medium)/well at 10× the final concentration. They were incubated for 30 minutes at 37° C.
Human recombinant carrier-free GM-CSF (ThermoFisher, ref PHC2015) was added to the wells in 4 μL (starvation medium)/well at 10×. The final concentration was 1 ng/mL. Control wells without GM-CSF treatment were added. Plates were incubated for 5 hours at 37° C.
6× LiveBlazer-FRET substrate (Invitrogen, K1085) was added to the wells at 8 μL/well. The substrate was prepared shortly before use by mixing 6 μL of solution A and 60 μL of solution B to 934 μL of solution C. Plates were incubated for 2.5 hours at room temperature in the dark. The plates were read on an Envision (Perkin Elmer) with an excitation at a wavelength of 409 nm and two wavelengths for the emission 520 nm and 450 nm. The ratio between the […] emission was used to calculate the IC50s.
The IC50 for the inhibition of pSTAT5 was calculated with the XLfit software using the 4 Parameter Logistic Model or Sigmoidal Dose-Response Model (model 205).

Caco-2 permeability = assay type: in vitro ADME; conditions: human, Caco-2
Experimental: (§1) Caco-2 cells were cultured for 21 days on a Transwell 96-well plate. The basal plate for changing the media was prepared by filling all wells of a 96-well sterile plate with 200 μL of Caco-2 media and placing it into an incubator. The apical section of the plate was lifted and lowered onto an empty basal plate. From the apical compartments containing 115 μL of cell media, 85 μL of the cell culture media was aspirated and replaced with 85 μL of fresh cell culture media. The basal plate was removed from the incubator and placed into a cell culture hood, while the apical section of the plate was returned to the basal plate and placed into the incubator.
(§2) Cells were fed one or two days prior to assay. A fresh basal plate was prepared by adding 200 μL of cell media to all wells and placing the plate in an incubator. The plate was then transferred from the incubator to the cell culture hood, where the apical compartment was lifted and placed onto an empty basal plate. 85 μL of media was removed from the apical wells and replaced with 85 μL of fresh media. The apical compartment of the plate was transferred to a basal plate and returned to the incubator.
(§3) On the day of the assay, 1 mL of 500-fold diluted compound solution was prepared in transport buffer. 62.5 μl of the prepared solution was used for the apical compartment, while 130 μl was used in the basal compartment. TEER measurements of the plate were taken. The dilutions were incubated for 15 minutes at 37° C. Basal assay plates were prepared by filling A→B wells of a 96-well sterile plate with 250 μl of transport buffer or B→A wells with 130 μl of diluted compound/control and 130 μl of HBSS and mixing 6-10 times with a multichannel pipette. 10 μl of samples were then collected form the basal compartments of the B→A wells for TO into the Quench Plates (shallow polypropylene plate, leaving 250 μl in each well). The basal assay plates were then placed into the incubator until use. The Caco-2 plate was placed in the hood and the apical section was lifted and placed onto an empty basal plate. 85 μl of the Caco-2 media was removed from the apical compartments containing 115 μl of cell culture media and replaced with 85 μl of fresh transport media. This was repeated twice for a total of 3 washes. 52.5 μl of buffer was then removed from the apical wells of the Caco-2 ready plates (leaving 62.5 μl buffer in the wells) and replaced with 62.5 of the diluted compound or control for the A→B wells or 52.5 μl of fresh transport buffer for the B→A wells. The total volume in the apical wells was assumed to be 125 μl for A→B and 115 μl for B→A. The apical wells were gently mixed 2-3 times with a multichannel pipette set to 50 μl and 10 μl of sample was collected from the apical compartments of A→B wells for TO into the TO Quench plates (shallow polypropylene plate). The total volume in all apical wells was 115 μl. The basal plate was removed from the incubator and transferred to the apical section of the basal plate and returned to the incubator. The TO samples were then diluted with 40 μl of transport buffer and 100 μl of quench solution was added. The cells were then kept cold. At T 2 hrs, 10 μl of sample was collected from all apical compartments and B→A basal compartments. 50 μl of sample was collected from the A→B compartments. The collected 10 μl of sample was then diluted with 40 μl of transport buffer. 100 μl of quench solution was then added to all T 2 hrs samples. After mixing, 50 μl of all TO and T 2 hrs samples were transferred to sample plates and diluted with 100 μl MilliQ water for bioanalysis. Final TEER measurements were taken after the completion of the assay.

Caco-2 cells = test: Caco-2 permeability; assay type: in vitro ADME
Experimental: as §1, §2, §3

Question: What does the source list for C[C@@H](c1ccc(Nc2cc(Nc3ncccc3S(C)(=O)=O)ncn2)nc1)N1CC2(COC2)C1 [Compound 1, (S)—N^4-(5-(1-(2-oxa-6-azaspiro[3.3]heptan-6-yl)ethyl)pyridin-2-yl)-N^6-(3-(methylsulfonyl)pyridin-2-yl)pyrimidine-4,6-diamine]?
Answer: IC50 (GM-CSF induced pSTAT5): 4 to 10 µM; Papp A→B at 2 h (Caco-2 permeability): ~6.02 ×10⁻⁶ cm/s; efflux ratio at 2 h (Caco-2 permeability): 1.38; Caco-2 Papp, A-B (Caco-2 cells): 6.02 ×10⁻⁶ cm/s

Question: Which IC50 (GM-CSF induced pSTAT5) does the source give for C[C@@H](c1ccc(Nc2cc(Nc3ncc(F)cc3S(C)(=O)=O)ncn2)nc1)N1CC2(COC2)C1 [Compound 2, (S)—N^4-(5-(1-(2-oxa-6-azaspiro[3.3]heptan-6-yl)ethyl)pyridin-2-yl)-N^6-(5-fluoro-3-(methylsulfonyl)pyridin-2-yl)pyrimidine-4,6-diamine] here?
Answer: > 10 µM

Question: And the Papp A→B at 2 h (Caco-2 permeability)?
Answer: ~7.2 ×10⁻⁶ cm/s

Question: And the efflux ratio at 2 h (Caco-2 permeability)?
Answer: 2.2

Question: And the “Caco-2 Papp, A-B” value (Caco-2 cells)?
Answer: 7.51 ×10⁻⁶ cm/s
